One assay has as its system E. coli ATCC 25922. Kind of assay: Time kill study (viability count). It counts as cell-based. To be noted: for Bacterial count: Compound of Formula (III) 2 μg/ml, alone or combined; for Bactericidal action (in words): E. coli ATCC 25922, standalone or combination, Tables 3 to 5. The method, then:
(§1) The antibacterial effectiveness of various antibacterial agents in presence of a compound of Formula (III) was investigated and the results are detailed below. In a typical study, overnight cultures in Trypticase soya broth (TSB) were brought to log phase by 1 in 10 dilution in fresh cation adjusted Mueller Hinton Broth (MHB) and incubation for 2.5 hours at 35° C. in orbital shaker. Log phase cultures were diluted to desired inoculums in flasks with MHB, containing various drug concentrations. Flasks were incubated at 35° C. in orbital shaker with rotational speed of 125 rpm. Viability count was determined by 1 in 10 serial dilutions of samples in normal saline and surface spreading of 10 μl of dilutions in duplicate on Trypticase soya agar plates. Plates were incubated for 24 hours at 35° C. and colonies were enumerated to determine the colony forming units (CFU) per ml volume.

Another assay concerns P. aeruginosa PAO1. Kind of assay: Time kill study (viability count). The assay is classed as cell-based. The following applies: for Bacterial count: Compound of Formula (III) 4 μg/ml, alone or combined; for Bactericidal action (in words): P. aeruginosa PAO1, standalone or combination, Tables 6 and 7. The method, then:
as §1

The results in this text go back to patent US20170172994A1, “COMPOSITIONS AND METHODS FOR TREATING BACTERIAL INFECTIONS” (WOCKHARDT LIMITED, priority 2013, published 2017).

On to `NC(=O)c1cc[n+](CC2=C(C(=O)O)N3C(=O)[C@@H](NC(=O)[C@@H](c4ccccc4)S(=O)(=O)[O-])[C@H]3SC2)cc1` [Cefsulodin], for which the Bacterial count was 7.47 log (CFU/ml) in the assay on E. coli ATCC 25922 (0 hour, Cefsulodin 16 μg/ml); 8.4 log (CFU/ml) with E. coli ATCC 25922 (2 hours, Cefsulodin 16 μg/ml); 8.8 log (CFU/ml) in the assay on E. coli ATCC 25922 (4 hours, Cefsulodin 16 μg/ml); 8.3 log (CFU/ml) in the assay with E. coli ATCC 25922 (6 hours, Cefsulodin 16 μg/ml); 9 log (CFU/ml) with E. coli ATCC 25922 (24 hours, Cefsulodin 16 μg/ml); 6.81 log (CFU/ml) with P. aeruginosa PAO1 (0 hour, Cefsulodin 2 μg/ml). Besides, the Bacterial count with P. aeruginosa PAO1 (2 hours, Cefsulodin 2 μg/ml) was 6.48 log (CFU/ml); with P. aeruginosa PAO1 (4 hours, Cefsulodin 2 μg/ml), 5.07 log (CFU/ml); in the assay on P. aeruginosa PAO1 (6 hours, Cefsulodin 2 μg/ml), 4.74 log (CFU/ml); in the assay with P. aeruginosa PAO1 (24 hours, Cefsulodin 2 μg/ml), 9 log (CFU/ml). For the same compound, the “Bactericidal action (in words)” value is reported as “did not exhibit any bactericidal action” with E. coli ATCC 25922 and “failed to cause consistent killing till 24 hour” in the assay on P. aeruginosa PAO1.
For the compound `C[C@H]1[C@H](NC(=O)/C(=N\OC(C)(C)C(=O)O)c2csc(N)n2)C(=O)N1S(=O)(=O)O` [Aztreonam], the Bacterial count is 7.47 log (CFU/ml) in the assay on E. coli ATCC 25922 (0 hour, Aztreonam 1 μg/ml); 7.48 log (CFU/ml) with E. coli ATCC 25922 (2 hours, Aztreonam 1 μg/ml); 7.47 log (CFU/ml) in the assay with E. coli ATCC 25922 (4 hours, Aztreonam 1 μg/ml); 7.48 log (CFU/ml) with E. coli ATCC 25922 (6 hours, Aztreonam 1 μg/ml); 7.5 log (CFU/ml) with E. coli ATCC 25922 (24 hours, Aztreonam 1 μg/ml); 5.74 log (CFU/ml) in the assay with P. aeruginosa PAO1 (0 hour, Aztreonam 2 μg/ml). Further, the Bacterial count was 6.3 log (CFU/ml) with P. aeruginosa PAO1 (2 hours, Aztreonam 2 μg/ml); 6.65 log (CFU/ml) in the assay with P. aeruginosa PAO1 (4 hours, Aztreonam 2 μg/ml); 6.54 log (CFU/ml) with P. aeruginosa PAO1 (6 hours, Aztreonam 2 μg/ml); 7.15 log (CFU/ml) in the assay with P. aeruginosa PAO1 (24 hours, Aztreonam 2 μg/ml). Further, the “Bactericidal action (in words)” value in the assay with E. coli ATCC 25922 and in the assay with P. aeruginosa PAO1 was “did not exhibit any bactericidal action” in each case.
Consider `CO[C@@]1(NC(=O)Cc2cccs2)C(=O)N2C(C(=O)O)=C(COC(N)=O)CS[C@@H]21` [Cefoxitin], for which the Bacterial count with E. coli ATCC 25922 (0 hour, Cefoxitin 1 μg/ml) is recorded as 7.47 log (CFU/ml); with E. coli ATCC 25922 (2 hours, Cefoxitin 1 μg/ml), 7.11 log (CFU/ml); with E. coli ATCC 25922 (4 hours, Cefoxitin 1 μg/ml) it was 6.7 log (CFU/ml); in the assay with E. coli ATCC 25922 (6 hours, Cefoxitin 1 μg/ml) it was 6.54 log (CFU/ml); in the assay with E. coli ATCC 25922 (24 hours, Cefoxitin 1 μg/ml), 9 log (CFU/ml). Moreover, the “Bactericidal action (in words)” value in the assay with E. coli ATCC 25922 was “did not exhibit any significant bactericidal action”.
